We go through one compound from US20080098491A1, “MOUSE MODELS TO STUDY CACHEXIA” (ZOLTAN LABORATORIES LLC, priority 2006, published 2008).

The experiment concerns MXT mouse mammary tumor. Put plainly: Cisplatin-treated MXT mouse mammary tumor model, purified PALP, AT, holo-TF, apo-TF (Example 9, Experiment 2). The class given is in vivo. The note with it: every second day from day 7 (6-times): cisplatin 3-mg/kg i.p., proteins 12-mg/kg s.c. The source says:
The B16 mouse melanoma and MXT mouse mammary tumors were developed in first generation hybrid BDF1 (C57 B1 female×DBA/2 male) adult female mice kept at specified pathogen free (SPF) hygienic level. These models were chosen for these experiments because these mice have the complete immune system, and both tumors grow very rapidly. To develop the tumors, B16 and MXT tumor tissue fragments of about 0.1-cm^3 were surgically implanted subcutaneously into the intrascapular region to develop the tumors. Each tumor fragment contained about 1-1.5×10^6 cells. The animals were kept in macrolon cages on ventilated rack at 22-24° C. (50-60% humidity) with lighting regimen of 12/12 h light/dark. The animals had free access to tap water and were fed with sterilized standard diet (Charles River VRF1, Germany) ad libitum. The animals were taken care of according to the “Guiding Principle for the care and use of Animals” based upon the Helsinki declaration and they were approved by the local ethical committee.
In case of both tumor models the tumor size was usually in the range of 0.2 to 0.5-g when treatments started 7-11 days after tumor implantation; the mice were selected so that in the same treatment group the difference in tumor size was no greater than 0.1 gram. In some experiments, the test proteins were suspended in physiological saline and injected in 50-μl volume subcutaneously in the vicinity of tumor (within 1-cm of tumor margin). In other experiments, the test proteins were dispersed in Vaselinum cholesteratum and used topically; 150-mg cream was applied on the tumor and the vicinity of tumor area (with about 0.5-cm of the tumor margin). The tumor volume was determined by using calipers; this technique is well known to one having ordinary skill in the art. Tumor volume was calculated according to the generally accepted formula: V=a^2×b×7r/6, where “a” and “b” mean the shortest and longest diameter, respectively, of the measured tumor.
Experiment 2. The commercial PALP used in this model for Exp. 1 was composed of PALP (˜10%), TF (˜12%), AT (˜30%), albumin (˜35%) and the degradation products of TF (˜13%). […] In this experiment, it was determined whether the other two major proteins, i.e. TF and AT, present in the commercial PALP preparation in addition to PALP, also influence cisplatin-induced loss of body weight or not. The mouse MXT mammary tumor was developed as described in Example 3. In the first group, animals remained untreated during the whole observation period. In the second group, starting on the 7th day after tumor implantation, mice were administered 3-mg per 1-kg of cisplatin i.p. 6-times every second day. In the third group, starting on the 7th day after tumor implantation, mice were simultaneously administered 3-mg per 1-kg of cisplatin i.p. and 12-mg per 1-kg of purified PALP s.c. In the fourth group, starting on the 7th day after tumor implantation, mice were simultaneously administered 3-mg per 1-kg of cisplatin i.p. and 12-mg per 1-kg of highly purified AT s.c. In the fifth group, starting on the 7th day after tumor implantation, mice were simultaneously administered 3-mg per 1-kg of cisplatin i.p. and 12-mg per 1-kg of commercial holo-TF (h-TF, T 0665 in the Sigma catalog) s.c. In the sixth group, starting on the 7th day after tumor implantation, mice were simultaneously administered 3-mg per 1-kg of cisplatin i.p. and 12-mg per 1-kg of commercial apo-TF (a-TF, T 2036 in the Sigma catalog) s.c. Holo-TF contained 1,100-1,600 μg iron per gram protein while apo-TF was essentially iron-free. Each treatment with the proteins was also performed 6-times on every second day simultaneously with the cisplatin treatment. Each group included 7 animals. The mean values for total weight, tumor weight and body weight (the difference between total and tumor weight) are shown in gram in TABLE 7.

On to `N.N.[Cl][Pt][Cl]` [Cisplatin, cisplatin], for which the “Body weight (total weight minus tumor weight)” value is recorded as 22.25 g (day 7 after transplantation); 21.25 g (day 11 after transplantation); 20.05 g (day 13 after transplantation); 18.1 g (day 15 after transplantation); 16.8 g (day 18 after transplantation). The Total weight reads like this: (day 7 after transplantation) 22.6 g; (day 11 after transplantation) 22.7 g; (day 13 after transplantation) 21.9 g; (day 15 after transplantation) 20.8 g; (day 18 after transplantation) 20.3 g. The Tumor weight reads like this: (day 7 after transplantation) 0.35 g; (day 11 after transplantation) 1.45 g; (day 13 after transplantation) 1.85 g; (day 15 after transplantation) 2.7 g; (day 18 after transplantation) 3.5 g.
